For one data set, the target named is T1, human CB2 receptor (Homo sapiens, UniProt P34972).
T1 construct: CB2 was cloned into the pCMV-PK vector; 93-0164 (CHO-K1 EA-Arrestin parental cell line)
The data set can be described thus: PathHunter β-arrestin assay, CB2 assay. It counts as cell-based.

The next data set relates to CB1. Conditions: exogenous administration of a CB1 agonist; cited from earlier work.
The test system of data set [1] is rats following ligation of spinal nerves. The settings on record: cited from earlier work.
The test system of data set [2] is STZ-induced PDPN model, diabetic and allodynic rats. Kind of data set: Streptozotocin-induced painful diabetic peripheral neuropathy (PDPN) model. It counts as in vivo, rat. Conditions: 10 mg/kg orally in 0.5% methylcellulose; 1, 4 and 6 hours post-dosing; FIG. 13, 14. The protocol:
Male Sprague-Dawley rats were injected intraperitoneally with 50 mg/kg of streptozotocin (STZ) in sodium citrate buffer. 10% sucrose water was provided ad libitum for the first 48 hours post-STZ followed by regular drinking water. Rats were monitored once weekly for blood glucose levels and body weights. Development of tactile allodynia over time was analyzed using Von Frey filaments and a 50% withdrawal threshold was determined using Dixon's up-down procedure. […] Tactile allodynia was evaluated at 1, 4 and 6 hours post-dosing.

Data set [3] deals with acute and chronic pain from chemical, mechanical, and thermal pain stimuli. Conditions: animal studies; cited from earlier work.
For data set [4], the system named is capsaicin-induced hyperalgesia and allodynia. Conditions: topical administration, humans; cited from earlier work.
The subject of data set [5] is Monosodium iodoacetate-induced osteoarthritis rats. The data set can be described thus: Combination of Compound 699 and morphine in MIA-induced osteoarthritis pain, Von Frey test. It counts as in vivo, rat. The settings on record: Von Frey one hour post-dosing.
In data set [6] the test system is carrageenan, capsaicin, and formalin models of inflammatory pain in rodents. Conditions: systemic delivery; cited from earlier work.
Data set [7] in a line: Dynamic moisture-sorption (DMS) analysis. It counts as physicochemical. The protocol:
A dynamic moisture-sorption (DMS) study was conducted using a dynamic moisture-sorption analyzer, VTI Corporation, SGA-100. The instrument was calibrated using polyvinyl pyrrolidone (PVP) and NaCl. Samples were prepared for DMS analysis by placing 5 mg to 20 mg of a sample in a tared sample holder. The sample was placed on the hang-down wire of the VTI balance. A drying step was run, typically at 40° C. and 0.5-1% RH for 1 h. The isotherm temperature is 25° C. Defined % RH holds typically ranged from 10% RH to 90% RH, with intervals of 10 to 20% RH. A % weight change smaller than 0.010% over 10 min, or up to 2 h, whichever occurred first, was required before continuing to the next % RH hold. The water content of the sample equilibrated as described above was determined at each % RH hold.

pEC50: −log10 of the molar value. Several values for one entry are separate records, joined by “and”; a condition that tells them apart may be missing. Equal entries are not always repeated.

T1 sequence (P34972 whole entry): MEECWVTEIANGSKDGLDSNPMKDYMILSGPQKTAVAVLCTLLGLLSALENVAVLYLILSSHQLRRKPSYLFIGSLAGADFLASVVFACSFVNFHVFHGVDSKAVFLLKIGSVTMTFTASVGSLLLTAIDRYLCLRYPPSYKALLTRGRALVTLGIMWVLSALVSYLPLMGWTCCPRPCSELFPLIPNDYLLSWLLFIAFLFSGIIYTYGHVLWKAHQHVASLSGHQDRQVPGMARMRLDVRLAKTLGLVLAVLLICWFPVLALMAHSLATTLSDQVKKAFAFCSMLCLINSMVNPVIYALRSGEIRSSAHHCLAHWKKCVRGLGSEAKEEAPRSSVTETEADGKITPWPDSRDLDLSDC
CB1, sequence (P47746 whole entry): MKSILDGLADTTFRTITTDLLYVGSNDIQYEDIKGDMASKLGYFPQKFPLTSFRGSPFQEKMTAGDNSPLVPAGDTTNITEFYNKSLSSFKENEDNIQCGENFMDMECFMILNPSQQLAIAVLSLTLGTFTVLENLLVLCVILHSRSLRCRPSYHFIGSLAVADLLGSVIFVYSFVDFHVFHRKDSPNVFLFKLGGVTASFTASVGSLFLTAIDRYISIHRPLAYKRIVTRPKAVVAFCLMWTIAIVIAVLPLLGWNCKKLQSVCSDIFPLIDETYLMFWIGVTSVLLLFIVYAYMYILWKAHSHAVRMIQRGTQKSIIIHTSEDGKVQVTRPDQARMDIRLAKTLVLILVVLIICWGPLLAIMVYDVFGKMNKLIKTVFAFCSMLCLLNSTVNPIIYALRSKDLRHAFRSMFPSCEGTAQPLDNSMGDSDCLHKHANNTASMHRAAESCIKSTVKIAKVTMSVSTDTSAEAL

The pEC50 is the negative decadic logarithm of the EC50, by convention in mol/L. Lower therefore signals a high EC50. On to `O=C(NC1(C(F)(F)F)CCC1)c1nn(-c2cnccn2)c2c1C[C@@H]1C[C@H]21` [Compound 926, (1aS,5aS)-2-Pyrazin-2-yl-1a,2,5,5a-tetrahydro-1H-2,3-diaza-cyclopropa[a]pentalene-4-carboxylic Acid (1-Trifluoromethyl-cyclobutyl)-amide], for which the pEC50 at human CB2 receptor is 8.39.
In the case of `CCCCC/C=C\C/C=C\C/C=C\C/C=C\CCCC(=O)NCCCl` [arachidonyl-2-chloroethylamide], in the data set with CB1, the effect on pain entry is “reduces pain”.
For the compound `COc1ccc(C(=O)c2c(C)n(CCN3CCOCC3)c3cc(I)ccc23)cc1` [AM630], the “effect on the reversal of hypersensitivity by AM1241” value in data set [1] (treatment with CB2-selective antagonist) is “inhibited”.
As for `CC(C)(NC(=O)c1nn(-c2c[n+]([O-])ccn2)c2c1C[C@@H]1C[C@H]21)C(F)(F)F` [Compound 919, (1aS,5aS)-2-(4-Oxy-pyrazin-2-yl)-1a,2,5,5a-tetrahydro-1H-2,3-diaza-cyclopropa[a]pentalene-4-carboxylic Acid (2,2,2-Trifluoro-1,1-dimethyl-ethyl)-amide], the “analgesic efficacy, tactile allodynia (50% withdrawal threshold)” value in [2] is “robust and sustained analgesic efficacy over 6 hours”. The pEC50 at human CB2 receptor is 8.55.
Compound `O=C(N[C@H]1c2ccccc2C[C@H]1O)c1nn(-c2c[n+]([O-])ccn2)c2c1C[C@@H]1C[C@H]21` [Compound 921, (1aS,5aS)-2-(4-Oxy-pyrazin-2-yl)-1a,2,5,5a-tetrahydro-1H-2,3-diaza-cyclopropa[a]pentalene-4-carboxylic Acid ((1S,2R)-2-Hydroxy-indan-1-yl)-amide] showed a pEC50 on human CB2 receptor of 8.66.
Take `O=C(NC1(C(F)(F)F)CCC1)c1nn(-c2c[n+]([O-])ccn2)c2c1C[C@@H]1C[C@H]21` [Compound 765, (1aS,5aS)-2-(4-Oxy-pyrazin-2-yl)-1a,2,5,5a-tetrahydro-1H-2,3-diaza-cyclopropa[a]pentalene-4-carboxylic Acid (1-Trifluoromethyl-cyclobutyl)-amide]: the negative-log EC50 (pEC50) on human CB2 receptor is 8.96.
Consider `CCCCCc1cc(O)c2c(c1)OC(C)(C)[C@@H]1CCC(C)=C[C@@H]21` [THC], for which, in [3], the “effect against acute and chronic pain” value was “effective against acute and chronic pain”.
Take `Cc1c(C(=O)c2cccc3ccccc23)c2cccc3c2n1[C@H](CN1CCOCC1)CO3` [WIN 55212-2]: the “effect against acute and chronic pain” value in data set [3] is “effective against acute and chronic pain”.
Regarding `CCCCCCC(C)(C)c1cc(O)c2c(c1)OC(C)(C)[C@@H]1CC=C(CO)C[C@@H]21` [HU-210], in data set [4], the “effect on capsaicin-induced hyperalgesia and allodynia” value is “attenuates capsaicin-induced hyperalgesia and allodynia”.
`COc1ccc2c(c1)c(CCN1CCOCC1)c(C)n2C(=O)c1cccc(Cl)c1Cl` [GW405833]: in data set [1] (administered systemically), the “effect on hypersensitivity to mechanical stimuli” value is listed as “significantly reverses hypersensitivity to mechanical stimuli”.
In the case of `CCCCC/C=C\C/C=C\C/C=C\C/C=C\CCCC(=O)NCCO` [anandamide], the “effect against acute and chronic pain” value in data set [3] is “effective against acute and chronic pain”.
`CN1CC[C@]23c4c5ccc(O)c4O[C@H]2[C@@H](O)C=C[C@H]3[C@H]1C5` [morphine, reference compound]: in data set [5] (1 mpk morphine intraperitoneally), the “paw withdrawal threshold (PWT), individual values” is 4.25 and 8.44 and 5.57 and 5.44 and 4.72 and 2.02.
For `CCCCCCC(C)(C)c1ccc([C@@H]2C[C@H](O)CC[C@H]2CCCO)c(O)c1` [CP55,940], in data set [3], the “effect against acute and chronic pain” value was “effective against acute and chronic pain”.
`CC(C)(C)[C@@H](CO)NC(=O)c1nn(-c2c[n+]([O-])ccn2)c2c1C[C@@H]1C[C@H]21` [Compound 699, (1aS,5aS)-2-(4-Oxy-pyrazin-2-yl)-1a,2,5,5a-tetrahydro-1H-2,3-diaza-cyclopropa[a]pentalene-4-carboxylic Acid ((S)-1-Hydroxymethyl-2,2-dimethyl-propyl)-amide]: the “paw withdrawal threshold (PWT), individual values” in [5] (1 mpk Compound 699 orally) is 6.66 and 5.56 and 11.69 and 5.54 and 7.80 and 3.58; in data set [5] (10 mpk Compound 699 orally (positive control)), 6.58 g and 7.8 g; in data set [5] (10 mpk Compound 699 orally (positive control), in g), 15.00 (3×) and 11.69. Moreover, the “analgesic efficacy, tactile allodynia (50% withdrawal threshold)” value in data set [2] was “robust and sustained analgesic efficacy over 6 hours”.
`CN1CCCCC1Cn1cc(C(=O)c2cc([N+](=O)[O-])ccc2I)c2ccccc21` (stereo not drawn) [AM1241]: in [1] (local (subcutaneous) or systemic administration), the “effect on tactile and thermal hypersensitivity” value was “reverses tactile and thermal hypersensitivity”. In addition, the “effect on induced hyperalgesia” value in data set [6] is recorded as “suppresses hyperalgesia”.
Take `CC(C)(C)[C@@H](CO)NC(=O)c1nn(-c2c[n+]([O-])ccn2)c2c1C[C@@H]1C[C@H]21` [Compound 699 (Anhydrous Form), (1aS,5aS)-2-(4-Oxy-pyrazin-2-yl)-1a,2,5,5a-tetrahydro-1H-2,3-diaza-cyclopropa[a]pentalene-4-carboxylic Acid ((S)-1-Hydroxymethyl-2,2-dimethyl-propyl)-amide]: the “Weight (% Change)” value is 0.151% in [7] (adsorption, sample RH 29.94 %, 25.32); 0.282% in data set [7] (adsorption, sample RH 49.86 %, 25.31); 0.482% in data set [7] (adsorption, sample RH 69.77 %, 25.3); 0.581% in data set [7] (adsorption, sample RH 79.70 %, 25.29); 0.762% in data set [7] (adsorption, sample RH 89.72 %, 25.3); 0.080% in data set [7] (desorption, sample RH 10.06 %, 25.29). Moreover, the “Weight (% Change)” value in data set [7] (desorption, sample RH 29.99 %, 25.29) came to 0.181%; in data set [7] (desorption, sample RH 50.07 %, 25.3), 0.364%; in [7] (desorption, sample RH 70.11 %, 25.30), 0.526%; in data set [7] (sample RH […], 25.46, elapsed 46.6 min (after drying)), 0%.

Source of the values: patent US9492447B2, “Cannabinoid receptor modulators” (Arena Pharmaceuticals, Inc., priority 2011, dated 2016).
